Reference: patent US9700044B2, “Symmetrical marinopyrrole derivatives as potential antibiotic agents” (priority 2013, dated 2017)
Converted amounts (≈) assume the structure as drawn. Like-named read-outs stand apart in the source and are kept apart here.

Key:
[1] = tested on: Methicillin-susceptible Staphylococcus aureus (MSSA); test: MIC by agar dilution, MSSA clinical isolates; type: cell-based; conditions: MSSA
Excerpt: (§1) A panel of multiple resistance Gram-positive and Gram-negative pathogens listed in Tables 1 and 2 was used to evaluate the antimicrobial activity of marinopyrrole derivatives (Chart 1) with vancomycin as a positive control. Except for those marked with WHO, all pathogens were isolated between 2008 and 2010 in hospitals located in Beijing; Guangzhou; Sichuan, Shandong and Jiangsu Province. Determination of the minimum inhibitory concentration (MIC) was done by the guidelines of the Clinical and Laboratory Standards Institute (Clinical and Laboratory Standards Institute, Performance standards for antimicrobial susceptibility testing, seventeenth informational supplement. 2007, 27, M100-S17). The susceptibility tests of a bacterial strain to a marinopyrrole derivative were performed by an agar dilution method. Briefly, each sterile petri dish contained a final volume of 15 mL comprising 1 mL of a marinopyrrole derivative and 14 mL of Mueller-Hinton broth. The concentrations of a marinopyrrole derivative are 128, 64, 32, 16, 8, 4, 2, 1, 0.5, 0.25, 0.125, 0.06, 0.03, 0.015 and 0.008 μg/mL. The petri dish containing the broth with different concentration of antibiotics was first inoculated with 10^5 CFU/mL (Denley A400, United Kingdom) and the culture was then incubated with shaking at 35-37° C. for 18-20 h. The potency of the compound was determined and expressed as minimum inhibitory concentration (MIC) in μg/mL. The MIC was determined as the lowest concentration of antibiotic that inhibited visible bacterial growth.

[2] = tested on: Methicillin-resistant Staphylococcus aureus (MRSA); test: MIC by agar dilution, MRSA clinical isolates; type: cell-based; conditions: MRSA
Excerpt: as §1

[3] = tested on: Methicillin-resistant Staphylococcus aureus with the mec A gene and PBP2a (WHO-31); test: MIC by agar dilution, MRSA (WHO-31); type: cell-based
Excerpt: as §1

[4] = tested on: Methicillin-resistant Staphylococcus epidermidis (MRSE); test: MIC by agar dilution, MRSE clinical isolates; type: cell-based; conditions: MRSE
Excerpt: as §1

[5] = tested on: Moderately vancomycin-resistant Enterococci faecium with the VanA gene (WHO-3); test: MIC by agar dilution, VRE (WHO-3); type: cell-based
Excerpt: as §1

P. aeruginosa = test: MIC by agar dilution, P. aeruginosa; type: cell-based
Excerpt: as §1

[6] = tested on: Highly vancomycin-resistant Enterococci faecalis (VRE); test: MIC by agar dilution, highly resistant VRE; type: cell-based
Excerpt: as §1

[7] = tested on: Oxacillin-resistant Staphylococcus aureus (WHO-25); test: MIC by agar dilution, ORSA (WHO-25); type: cell-based
Excerpt: as §1

E. coli = test: MIC by agar dilution, E. coli; type: cell-based
Excerpt: as §1

K. penumonia = test: MIC by agar dilution, K. penumonia; type: cell-based, K. pneumonia
Excerpt: as §1

[8] = Table 1, MRSA (WHO-31), 1 isolate
[9] = Table 1, VRE (WHO-3), 1 isolate
[10] = Table 1, P. aeruginosa, 4 isolates, value over three Gram-negative pathogens
[11] = Table 1, VRE (highly vancomycin-resistant E. faecalis), 2 isolates
[12] = Table 1, ORSA (WHO-25), 1 isolate
[13] = Table 1, E. coli, 4 isolates, value over three Gram-negative pathogens
[14] = Table 1, K. penumonia, 4 isolates, value over three Gram-negative pathogens
[15] = Staphylococcus aureus, Table 1, 10 isolates
[16] = Staphylococcus aureus, Table 2, data from 8 isolates
[17] = Staphylococcus aureus, Table 3, data from 8 isolates

O=C(c1ccccc1)c1[nH]c(Cl)c(Cl)c1-n1c(C(=O)c2ccccc2)cc(Cl)c1Cl [Compound 1d]
MIC ([1]; Table 1, 10 isolates): 2 to 8 µg/mL | MIC ([2]; Table 1, 10 isolates): 4 to 8 µg/mL | MIC [3, 8]: 4 µg/mL (≈ 8.37 µM) | MIC ([4]; Table 1, 3 isolates): 0.5 to 4 µg/mL | MIC [5, 9]: 2 µg/mL (≈ 4.18 µM) | MIC (P. aeruginosa; [10]): >128 µg/mL | MIC [6, 11]: >128 µg/mL | MIC [7, 12]: 4 µg/mL (≈ 8.37 µM) | MIC (E. coli; [13]): >128 µg/mL | MIC (K. penumonia; [14]): >128 µg/mL

COc1cccc(C(=O)c2[nH]c(Cl)c(Cl)c2-n2c(C(=O)c3cccc(OC)c3)cc(Cl)c2Cl)c1 [Compound 1e]
MIC ([1]; Table 1, 10 isolates): >128 µg/mL | MIC ([2]; Table 1, 10 isolates): >128 µg/mL | MIC [3, 8]: >128 µg/mL | MIC ([4]; Table 1, 3 isolates): >128 µg/mL | MIC [5, 9]: >128 µg/mL | MIC (P. aeruginosa; [10]): >128 µg/mL | MIC [6, 11]: >128 µg/mL | MIC [7, 12]: >128 µg/mL | MIC (E. coli; [13]): >128 µg/mL | MIC (K. penumonia; [14]): >128 µg/mL

COc1ccc(C(=O)c2[nH]c(Cl)c(Cl)c2-n2c(C(=O)c3ccc(OC)cc3)cc(Cl)c2Cl)cc1 [Compound 1f]
MIC ([1]; Table 1, 10 isolates): >128 µg/mL | MIC ([2]; Table 1, 10 isolates): >128 µg/mL | MIC [3, 8]: >128 µg/mL | MIC ([4]; Table 1, 3 isolates): >128 µg/mL | MIC [5, 9]: >128 µg/mL | MIC (P. aeruginosa; [10]): >128 µg/mL | MIC [6, 11]: >128 µg/mL | MIC [7, 12]: >128 µg/mL | MIC (E. coli; [13]): >128 µg/mL | MIC (K. penumonia; [14]): >128 µg/mL

O=C(c1ccccc1F)c1[nH]c(Cl)c(Cl)c1-n1c(C(=O)c2ccccc2F)cc(Cl)c1Cl [Compound 1g]
MIC ([1]; Table 1, 10 isolates): >128 µg/mL | MIC ([2]; Table 1, 10 isolates): >128 µg/mL | MIC [3, 8]: >128 µg/mL | MIC ([4]; Table 1, 3 isolates): >128 µg/mL | MIC [5, 9]: >128 µg/mL | MIC (P. aeruginosa; [10]): >128 µg/mL | MIC [6, 11]: >128 µg/mL | MIC [7, 12]: >128 µg/mL | MIC (E. coli; [13]): >128 µg/mL | MIC (K. penumonia; [14]): >128 µg/mL

O=C(c1cccc(F)c1)c1[nH]c(Cl)c(Cl)c1-n1c(C(=O)c2cccc(F)c2)cc(Cl)c1Cl [Compound 1h]
MIC ([1]; Table 1, 10 isolates): 4 to 16 µg/mL | MIC ([2]; Table 1, 10 isolates): >64 µg/mL | MIC [3, 8]: 4 µg/mL (≈ 7.78 µM) | MIC ([4]; Table 1, 3 isolates): 0.13 to 1 µg/mL | MIC [5, 9]: 4 µg/mL (≈ 7.78 µM) | MIC (P. aeruginosa; [10]): >128 µg/mL | MIC [6, 11]: >128 µg/mL | MIC [7, 12]: 4 µg/mL (≈ 7.78 µM) | MIC (E. coli; [13]): >128 µg/mL | MIC (K. penumonia; [14]): >128 µg/mL

O=C(c1ccc(F)cc1)c1[nH]c(Cl)c(Cl)c1-n1c(C(=O)c2ccc(F)cc2)cc(Cl)c1Cl [Compound 1i]
MIC ([1]; Table 1, 10 isolates): 4 to 16 µg/mL | MIC ([2]; Table 1, 10 isolates): 8 to 16 µg/mL | MIC [3, 8]: 4 µg/mL (≈ 7.78 µM) | MIC ([4]; Table 1, 3 isolates): 0.25 to 4 µg/mL | MIC [5, 9]: 4 µg/mL (≈ 7.78 µM) | MIC (P. aeruginosa; [10]): >128 µg/mL | MIC [6, 11]: >128 µg/mL | MIC [7, 12]: 8 µg/mL (≈ 15.6 µM) | MIC (E. coli; [13]): >128 µg/mL | MIC (K. penumonia; [14]): >128 µg/mL

O=C(c1ccccc1C(F)(F)F)c1[nH]c(Cl)c(Cl)c1-n1c(C(=O)c2ccccc2C(F)(F)F)cc(Cl)c1Cl [Compound 1j]
MIC ([1]; Table 1, 10 isolates): >128 µg/mL | MIC ([2]; Table 1, 10 isolates): >128 µg/mL | MIC [3, 8]: >128 µg/mL | MIC ([4]; Table 1, 3 isolates): >128 µg/mL | MIC [5, 9]: >128 µg/mL | MIC (P. aeruginosa; [10]): >128 µg/mL | MIC [6, 11]: >128 µg/mL | MIC [7, 12]: >128 µg/mL | MIC (E. coli; [13]): >128 µg/mL | MIC (K. penumonia; [14]): >128 µg/mL

O=C(c1ccc(C(F)(F)F)cc1)c1[nH]c(Cl)c(Cl)c1-n1c(C(=O)c2ccc(C(F)(F)F)cc2)cc(Cl)c1Cl [Compound 1k]
MIC ([1]; Table 1, 10 isolates): 8 to 32 µg/mL | MIC ([2]; Table 1, 10 isolates): 32 to 64 µg/mL | MIC [3, 8]: 8 µg/mL (≈ 13 µM) | MIC ([4]; Table 1, 3 isolates): 0.03 to 4 µg/mL | MIC [5, 9]: 8 µg/mL (≈ 13 µM) | MIC (P. aeruginosa; [10]): >128 µg/mL | MIC [6, 11]: >128 µg/mL | MIC [7, 12]: 8 µg/mL (≈ 13 µM) | MIC (E. coli; [13]): >128 µg/mL | MIC (K. penumonia; [14]): >128 µg/mL

COc1cc(O)c(C(=O)c2[nH]c(Cl)c(Cl)c2-n2c(C(=O)c3cc(Cl)c(OC)cc3O)cc(Cl)c2Cl)cc1Cl [Compound 1m]
MIC ([1]; Table 1, 10 isolates): 2 to 8 µg/mL | MIC ([2]; Table 1, 10 isolates): 2 to 8 µg/mL | MIC [3, 8]: 4 µg/mL (≈ 6.26 µM) | MIC ([4]; Table 1, 3 isolates): 0.25 to 4 µg/mL | MIC [5, 9]: 0.5 µg/mL (≈ 0.782 µM) | MIC (P. aeruginosa; [10]): >128 µg/mL | MIC [6, 11]: >128 µg/mL | MIC [7, 12]: 4 µg/mL (≈ 6.26 µM) | MIC (E. coli; [13]): >128 µg/mL | MIC (K. penumonia; [14]): >128 µg/mL

COc1cc(OC)c(C(=O)c2[nH]c(Cl)c(Cl)c2-n2c(C(=O)c3cc(Cl)c(OC)cc3OC)cc(Cl)c2Cl)cc1Cl [Compound 1n]
MIC ([1]; Table 1, 10 isolates): >64 µg/mL | MIC ([2]; Table 1, 10 isolates): >64 µg/mL | MIC [3, 8]: >64 µg/mL | MIC ([4]; Table 1, 3 isolates): >64 µg/mL | MIC [5, 9]: >64 µg/mL | MIC (P. aeruginosa; [10]): >64 µg/mL | MIC [6, 11]: >64 µg/mL | MIC [7, 12]: >64 µg/mL | MIC (E. coli; [13]): >64 µg/mL | MIC (K. penumonia; [14]): >64 µg/mL

CN[C@H](CC(C)C)C(=O)N[C@H]1C(=O)N[C@@H](CC(N)=O)C(=O)N[C@H]2C(=O)N[C@H]3C(=O)N[C@H](C(=O)N[C@H](C(=O)O)c4cc(O)cc(O)c4-c4cc3ccc4O)[C@H](O)c3ccc(c(Cl)c3)Oc3cc2cc(c3O[C@@H]2O[C@H](CO)[C@@H](O)[C@H](O)[C@H]2O[C@H]2C[C@](C)(N)[C@H](O)[C@H](C)O2)Oc2ccc(cc2Cl)[C@H]1O [Van, Vancomycin, reference compound]
MIC [1, 15]: 0.5 to 1 µg/mL (≈ 0.345 to 0.69 µM) | MIC [1, 16]: 1 µg/mL (≈ 0.69 µM) | MIC [1, 17]: 1 µg/mL (≈ 0.69 µM) | MIC [2, 15]: 0.25 to 0.5 µg/mL (≈ 0.173 to 0.345 µM) | MIC [2, 16]: 0.5 to 1 µg/mL (≈ 0.345 to 0.69 µM) | MIC [2, 17]: 0.5 to 1 µg/mL (≈ 0.345 to 0.69 µM) | MIC ([3]; Staphylococcus aureus): 1 µg/mL (≈ 0.69 µM) | MIC ([3]; Staphylococcus aureus, MRSA): 0.5 µg/mL (≈ 0.345 µM) | MIC ([3]; Table 3, WHO-31): 1 µg/mL (≈ 0.69 µM) | MIC ([4]; Staphylococcus epidermidis, Table 1, 3 isolates): 0.13 to 0.5 µg/mL (≈ 0.0897 to 0.345 µM) | MIC ([4]; Staphylococcus epidermidis, Table 2, data from 4 isolates): 0.5 to 1 µg/mL (≈ 0.345 to 0.69 µM) | MIC ([4]; Staphylococcus epidermidis, Table 3, data from 4 isolates): 0.5 to 1 µg/mL (≈ 0.345 to 0.69 µM) | MIC ([5]; Enterococcus): > 128 µg/mL | MIC ([5]; Enterococcus, VRE): > 64 µg/mL | MIC ([5]; Table 3, WHO-3): >128 µg/mL | MIC (P. aeruginosa; Pseudomonas aeruginosa): > 128 µg/mL | MIC [6]: > 128 µg/mL | MIC ([7]; Staphylococcus aureus, Table 1, ORSA (WHO-25), 1 isolate): 2 µg/mL (≈ 1.38 µM) | MIC ([7]; Staphylococcus aureus, Table 3, WHO-25): 4 µg/mL (≈ 2.76 µM) | MIC ([7]; Staphylococcus aureus, Table 2, WHO-25): 4 µg/mL (≈ 2.76 µM) | MIC (E. coli; Escherichia coli): > 128 µg/mL | MIC (K. penumonia; Klebsiella pneumoniae): > 128 µg/mL
